Measured values reported in patent publication US9573954B2, “Pyrazolopyrimidine compounds” (University Health Network, priority 2012, dated 2017).
Where two headings read alike, the source gives them in different places.

Legend:
human TTK = target: T1, human TTK (Homo sapiens, UniProt P33981); experiment: TTK inhibition assay (indirect ELISA); type: biochemical; conditions: 16 μM ATP (asterisk), read-out: TTK IC50 Range
T1 construct: Active TTK was purchased from Invitrogen as an amino terminal GST fusion of full length human TTK; purchased Invitrogen
T1 sequence (P33981 1-857): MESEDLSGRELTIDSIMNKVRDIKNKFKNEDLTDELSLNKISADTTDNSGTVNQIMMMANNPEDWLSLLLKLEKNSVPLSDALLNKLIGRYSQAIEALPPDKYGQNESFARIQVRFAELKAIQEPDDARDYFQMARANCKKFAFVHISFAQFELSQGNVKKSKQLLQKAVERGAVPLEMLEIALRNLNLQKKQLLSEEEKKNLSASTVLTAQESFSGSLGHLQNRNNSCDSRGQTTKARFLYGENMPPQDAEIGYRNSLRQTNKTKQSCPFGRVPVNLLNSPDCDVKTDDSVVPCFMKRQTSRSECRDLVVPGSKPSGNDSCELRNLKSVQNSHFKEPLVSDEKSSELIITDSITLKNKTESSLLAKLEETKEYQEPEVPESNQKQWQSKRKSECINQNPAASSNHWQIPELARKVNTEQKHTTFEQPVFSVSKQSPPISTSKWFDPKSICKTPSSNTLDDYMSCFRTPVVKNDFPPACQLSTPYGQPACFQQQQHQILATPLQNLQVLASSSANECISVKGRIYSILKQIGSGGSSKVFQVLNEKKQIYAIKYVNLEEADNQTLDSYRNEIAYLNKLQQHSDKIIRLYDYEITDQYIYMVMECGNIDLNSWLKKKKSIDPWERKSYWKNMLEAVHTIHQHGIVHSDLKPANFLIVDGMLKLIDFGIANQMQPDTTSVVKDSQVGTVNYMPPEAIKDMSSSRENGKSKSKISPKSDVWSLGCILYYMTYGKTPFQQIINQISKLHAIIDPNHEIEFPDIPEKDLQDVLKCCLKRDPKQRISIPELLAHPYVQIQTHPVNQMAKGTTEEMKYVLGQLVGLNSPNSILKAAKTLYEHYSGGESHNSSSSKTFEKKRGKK
Procedure, shortened: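 Activity detected by indirect ELISA after compounds sat with full-length GST-TTK for 5 min prior to starting the reaction with ATP. IC50 came from a four-parameter logistic curve of % inhibition, calculated against background and uninhibited control wells.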

[1] = system: colon cancer cells (HCT116); experiment: Cancer cell line growth inhibition, Sulforhodamine B assay, HCT116; type: cell-based; conditions: Homo sapiens, HCT-116, 120 h, HCT116, 5 days, SRB, read-out: Cancer Cell Line GI50 Range HCT116
Procedure, shortened: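 GI50 is calculated from growth inhibition relative to DMSO controls, using TCA-fixed, SRB-stained protein mass read at 570 nm. Compound, 10 nM–50 μM final in 10% FBS DMEM, was applied for 5 days to HCT116 cells that had been plated 24 h before at 1000–4000/well.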

[2] = system: breast cancer cells (MDA-MB-468); experiment: Cancer cell line growth inhibition, Sulforhodamine B assay, MDA-MB-468; type: cell-based; conditions: Homo sapiens, MDA-MB-468, 120 h, Table 1; MDA-MB-468, 5 days, SRB; read-out: Cancer Cell Line GI50 Range MDA-MB-468
Procedure, shortened: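 Sulforhodamine B staining (TCA-fixed, read at 570 nm) estimates cell mass after 5-day compound treatment of MDA-MB-468 cells, final concentrations 10 nM to 50 μM in 10% FBS DMEM. GI50 derived from growth inhibition versus DMSO controls.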

[3] = system: ovarian cancer cells (PA-1); experiment: Cancer cell line growth inhibition, Sulforhodamine B assay, PA-1; type: cell-based; conditions: 120 h, PA-1, 5 days, SRB, read-out: Cancer Cell Line GI50 Range PA-1
Description: (§1) Breast cancer cells (MDA-MB-231 and MDA-MB-468), colon cancer cells (HCT116) and ovarian cancer cells (PA-1 and OVCAR-3) were seeded (1000 to 4000 in 80 μl per well depending on the cell growth rate) into 96 well plates 24 hours before compound overlay. Compounds were prepared as 10 mM stock solutions in 100% DMSO which were diluted with DMEM (Dulbecco's Modified Eagle's Medium) cell growth Medium (Invitrogen, Burlington, ON, Canada) containing 10% FBS (Fetal Bovine Serum) to concentrations ranging from 50 nM to 250 μM. Aliquots (20 μl) from each concentration were overlaid to 80 μl of the pre-seeded cells in the 96 well plates to make final concentrations of 10 nM to 50 μM. The cells were cultured for 5 days before the Sulforhodamine B assay (SRB) was performed to determine the compound's cell growth inhibition activity.
(§2) Sulforhodamine B (purchased from Sigma, Oakville, ON, Canada) is a water-soluble dye that binds to the basic amino acids of the cellular proteins. Thus, colorimetric measurement of the bound dye provides an estimate of the total protein mass that is related to the cell number. the cells are fixed in situ by gently aspirating off the culture media and adding 50 μl ice cold 10% Trichloroacetic Acid (TCA) per well and incubate at 4° C. for 30-60 min, The plates are washed with H2O five times and allowed to air dry for 5 min. Addition of 50 μl 0.4% (w/v) SRB solution in 1% (v/v) acetic acid to each well and incubation for 30 min at RT completes the staining reaction. Following staining, plates are washed four times with 1% acetic acid to remove unbound dye and then allowed to air dry for 5 min. The stain is solubilized with 100 μl of 10 mM Tris pH 10.5 per well. Absorbance is read at 570 nm.
(§3) The percentage (%) of relative growth inhibition was calculated by comparing to DMSO treated only cells (100%). GI50's were determined for compounds with cytotoxic activity. The GI50 was calculated using GraphPad PRISM software (GraphPad Software, Inc., San Diego, Calif., USA).
In Table 1 below, GI50 value ranges for compound examples against breast cancer cell lines (MDA-MB-468), colon cancer cell lines (HCT116) and ovarian cancer cell lines (PA-1) are given.
(§4) In Table 2 below, GI50 value ranges for compound examples against breast cancer cell lines (MDA-MB-231), colon cancer cell lines (HCT116) and ovarian cancer cell lines (PA-1) are given.

[4] = system: Ovarian 2393A tumor initiating cells; experiment: Tumor-initiating cell growth inhibition, Alamar Blue assay, ovarian TICs; type: cell-based; conditions: 144 h; Table 1; ovarian TICs, 6 days, Alamar Blue; read-out: Tumor Initiating Cell GI50 Range Ovarian 2393A
Procedure, shortened: (§5)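 Colon TICs (4,000/well, non-TC plates) and ovarian TICs (1,000/well, TC plates) kept in serum-free DMEM:F12 with B-27, heparin, bFGF and EGF. Compound added after 24 h at 0.1% DMSO, then 9 days (colon) or 6 days (ovarian) at 37° C. GI50 from Alamar Blue fluorescence (ex 544/em 590) after 4 h.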

[5] = system: Colon 12 tumor initiating cells; experiment: Tumor-initiating cell growth inhibition, Alamar Blue assay, colon TICs; type: cell-based; conditions: 216 h; Table 1; colon TICs, 9 days, Alamar Blue; read-out: Tumor Initiating Cell GI50 Range Colon 12
Procedure, shortened: as §5

[6] = system: breast cancer cells (MDA-MB-231); experiment: Cancer cell line growth inhibition, Sulforhodamine B assay, MDA-MB-231; type: cell-based; conditions: Homo sapiens, 120 h; Table 2; MDA-MB-231, 5 days, SRB; read-out: Cancer Cell Line GI50 Range MDA-MB-231
Description: as §1, §2, §3, §4

SMILES | IC50 (human TTK; Table 1) [nM] | GI50 ([1]; Table 1) [nM] | GI50 [2] [nM] | GI50 ([3]; Table 1) [nM] | GI50 [4] [nM] | GI50 [5] [nM] | IC50 (human TTK; Table 2) [nM] | GI50 ([1]; Table 2) [nM] | GI50 [6] [nM] | GI50 ([3]; Table 2) [nM]
O=C(NC1CC1)c1ccc(-c2cnn3c(NCC4CCOCC4)nc(OC4CCCC4)nc23)cc1Cl [Example A5, 2-chloro-4-(2-(cyclopentyloxy)-4-(((tetrahydro-2H-pyran-4-yl)methyl)amino)pyrazolo[1,5-a][1,3,5]triazin-8-yl)-N-cyclopropylbenzamide] | < 100 | 100 to 500 | > 500 | 100 to 500 | > 500 | 100 to 500 | – | – | – | –
O=C(NC1CC1)c1ccc(-c2cnn3c(NCC4CCOCC4)nc(N4CCOCC4)nc23)cc1Cl [Example A6, 2-chloro-N-cyclopropyl-4-(2-morpholino-4-(((tetrahydro-2H-pyran-4-yl)methyl)amino)pyrazolo[1,5-a][1,3,5]triazin-8-yl)benzamide] | < 100 | 100 to 500 | > 500 | ≤ 100 | 100 to 500 | 100 to 500 | – | – | – | –
O=C(NC1CC1)c1ccc(-c2cnn3c(NCCN4CCOCC4)nc(Oc4ccccc4)nc23)cc1 [Example A7, N-cyclopropyl-4-(4-((2-morpholinoethyl)amino)-2-phenoxypyrazolo[1,5-a][1,3,5]triazin-8-yl)benzamide] | < 100 | > 500 | > 500 | 100 to 500 | > 500 | > 500 | – | – | – | –
O=C(NC1CC1)c1ccc(-c2cnn3c(NCC4CCOCC4)nc(OC4CCOCC4)nc23)cc1Cl [Example A14, 2-chloro-N-cyclopropyl-4-(4-(((tetrahydro-2H-pyran-4-yl)methyl)amino)-2-((tetrahydro-2H-pyran-4-yl)oxy)pyrazolo[1,5-a][1,3,5]triazin-8-yl)benzamide] | < 100 | 100 to 500 | > 500 | 100 to 500 | > 500 | > 500 | – | – | – | –
O=C(NC1CC1)c1ccc(-c2cnn3c(NCC4CCOCC4)nc(NC4CCCC4)nc23)cc1 [Example A15, 4-(2-(cyclopentylamino)-4-(((tetrahydro-2H-pyran-4-yl)methyl)amino)pyrazolo[1,5-a][1,3,5]triazin-8-yl)-N-cyclopropylbenzamide] | < 100 | 100 to 500 | > 500 | 100 to 500 | 100 to 500 | 100 to 500 | – | – | – | –
Cc1cc(-c2cnn3c(NCC4CCOCC4)cc(NCC(C)(C)O)nc23)ccc1C(=O)NC1CC1 [Example B10, N-cyclopropyl-4-(5-((2-hydroxy-2-methylpropyl)amino)-7-(((tetrahydro-2H-pyran-4-yl)methyl)amino)pyrazolo[1,5-a]pyrimidin-3-yl)-2-methylbenzamide] | – | – | – | – | – | – | < 100 | 100 to 500 | > 500 | 100 to 500
Cc1cc(-c2cnn3c(NCC4CCOCC4)cc(N4CCOCC4)nc23)ccc1C(=O)NC1CC1 [Example B11, N-cyclopropyl-2-methyl-4-(5-morpholino-7-(((tetrahydro-2H-pyran-4-yl)methyl)amino)pyrazolo[1,5-a]pyrimidin-3-yl)benzamide] | – | – | – | – | – | – | < 100 | 100 to 500 | 100 to 500 | 100 to 500
Cc1cc(-c2cnn3c(NCC4CCOCC4)cc(OC4CCCC4)nc23)ccc1C(=O)NC1CC1 [Example B21, 4-(5-(cyclopentyloxy)-7-(((tetrahydro-2H-pyran-4-yl)methyl)amino)pyrazolo[1,5-a]pyrimidin-3-yl)-N-cyclopropyl-2-methylbenzamide] | – | – | – | – | – | – | < 100 | ≤ 100 | 100 to 500 | ≤ 100
Cc1cc(-c2cnn3c(NCCC4CCOCC4)cc(Oc4cccnc4)nc23)ccc1C(=O)NC1CC1 [Example B22, N-cyclopropyl-2-methyl-4-(5-(pyridin-3-yloxy)-7-((2-(tetrahydro-2H-pyran-4-yl)ethyl)amino)pyrazolo[1,5-a]pyrimidin-3-yl)benzamide] | – | – | – | – | – | – | < 100 | ≤ 100 | ≤ 100 | ≤ 100
Cc1cc(-c2cnn3c(NCC4CCOCC4)cc(OC4CCCCC4)nc23)ccc1C(=O)NC1CC1 [Example B23, 4-(5-(cyclohexyloxy)-7-(((tetrahydro-2H-pyran-4-yl)methyl)amino)pyrazolo[1,5-a]pyrimidin-3-yl)-N-cyclopropyl-2-methylbenzamide] | – | – | – | – | – | – | < 100 | 100 to 500 | 100 to 500 | 100 to 500
Cc1cc(-c2cnn3c(NCC4CCOCC4)cc(NC4CCCCC4)nc23)ccc1C(=O)NC1CC1 [Example B24, 4-(5-(cyclohexylamino)-7-(((tetrahydro-2H-pyran-4-yl)methyl)amino)pyrazolo[1,5-a]pyrimidin-3-yl)-N-cyclopropyl-2-methylbenzamide] | – | – | – | – | – | – | < 100 | ≤ 100 | ≤ 100 | ≤ 100
Cc1cc(-c2cnn3c(NCC(C)C)cc(Oc4cccnc4)nc23)ccc1C(=O)NC1CC1 [Example B25, N-cyclopropyl-4-(7-(isobutylamino)-5-(pyridin-3-yloxy)pyrazolo[1,5-a]pyrimidin-3-yl)-2-methylbenzamide] | – | – | – | – | – | – | < 100 | ≤ 100 | ≤ 100 | ≤ 100
